Results: US4569943A, “Physiologically active substance P-23924, its production and use” (Takeda Chemical Industries, Ltd., priority 1982, dated 1986)

Assays:
Solubility = format: physicochemical
[1] = Description (acidity, fat solubility); format: physicochemical
[2] = Acute toxicity [LD50] by the intraperitoneal route; conditions: rat, in vivo, ip, rats
Source text: The acute toxicity [LD50 ] values of P-23924 in rats by the intraperitoneal route are given below.

[3] = biological target: T1, Protocollagen prolyl hydroxylase (Gallus gallus, UniProt P16924); assay: Protocollagen prolyl hydroxylase inhibiting activity (method of R. E. Rhoads, substrate (Pro-Pro-Gly)5.4H2O); format: biochemical, chick embryo; conditions: for IC50: 100 μg (as protein) of partially purified enzyme preparation from chick embryo, read-out: Concentration of P-23924 required for a 50% inhibition; for inhibition at 12.5 µM: 12.5 μM compound, 100 μg enzyme
T1 construct: partially purified enzyme preparation derived from chick embryo; from tissue; host or cells: chick embryo (partially purified enzyme preparation)
T1 sequence (P16924 1-516): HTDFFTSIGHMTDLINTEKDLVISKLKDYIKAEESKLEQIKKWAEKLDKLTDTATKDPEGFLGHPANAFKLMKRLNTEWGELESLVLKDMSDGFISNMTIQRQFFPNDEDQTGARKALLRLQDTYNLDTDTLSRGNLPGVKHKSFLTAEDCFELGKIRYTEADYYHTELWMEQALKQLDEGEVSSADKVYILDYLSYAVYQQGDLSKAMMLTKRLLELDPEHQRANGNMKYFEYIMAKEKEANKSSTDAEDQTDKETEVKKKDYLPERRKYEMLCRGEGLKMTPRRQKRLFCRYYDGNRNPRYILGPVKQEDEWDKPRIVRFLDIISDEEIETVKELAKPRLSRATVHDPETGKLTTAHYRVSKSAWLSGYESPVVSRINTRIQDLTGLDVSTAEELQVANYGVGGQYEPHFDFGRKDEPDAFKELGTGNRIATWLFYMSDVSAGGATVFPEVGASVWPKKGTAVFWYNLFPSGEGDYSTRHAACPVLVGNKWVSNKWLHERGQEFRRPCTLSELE
T1 sequence (P09102 23-515 partner): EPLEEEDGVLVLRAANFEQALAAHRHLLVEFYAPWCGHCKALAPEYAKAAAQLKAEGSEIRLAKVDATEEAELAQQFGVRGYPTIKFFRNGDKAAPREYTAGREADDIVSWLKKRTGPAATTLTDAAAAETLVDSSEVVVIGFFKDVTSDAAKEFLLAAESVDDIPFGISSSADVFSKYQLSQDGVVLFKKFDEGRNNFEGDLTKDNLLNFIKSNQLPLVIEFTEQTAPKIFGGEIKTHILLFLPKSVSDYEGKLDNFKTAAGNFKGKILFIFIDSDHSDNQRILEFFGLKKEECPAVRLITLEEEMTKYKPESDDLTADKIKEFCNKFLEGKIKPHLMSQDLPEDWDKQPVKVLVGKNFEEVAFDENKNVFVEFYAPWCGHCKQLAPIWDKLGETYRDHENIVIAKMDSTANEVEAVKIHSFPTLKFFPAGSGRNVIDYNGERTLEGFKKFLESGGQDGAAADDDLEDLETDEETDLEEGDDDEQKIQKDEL
Protocol: (a) Protocollagen prolyl hydroxylase inhibiting activity: This inhibitory activity was assayed by the method of R. E. Rhoads [Methods in Enzymology XVII B, 306 (1971)] using a partially purified enzyme preparation derived from chick embryo in accordance with the methods of K. I. Kivirriko et al and J. Halme et al. [Journal of Biological Chemistry 242, 4007 (1967) and Biochimica et Biophysica Acta 198, 460 (1967)] and, as the substrate, (Pro-Pro-Gly)5.4H2 O [manufactured by Tanpakushitsu Kenkyu Shoreikai (Protein Research Foundation Society), Osaka, Japan]. The concentrations of P-23924 required for a 50% inhibition of 100 μg (as protein) of said partially purified enzyme preparation were as follows.
On the other hand, by a similar procedure as above, the protocollagen prolyl hydroxylase inhibiting activities on the compounds of P-23924 AR, BR, CR and DR are measured.

[4] = system: collagen biosynthesis (uterus); assay: Collagen biosynthesis suppressant activity in uterus of estradiol-17β treated rats (method of T. Ishimaru et al); format: in vivo, SD rats; conditions: for Body weight of rats / Collagen content of uterus / Total protein content of uterus: groups of 10; for % Inhibition: Non-collagenous protein: total protein content - collagen
Source text: (b) Collagen biosynthesis suppressant activity: In accordance with the method of T. Ishimaru et al [Biochemical Pharmacology 31, 915 (1982)], P-23924 was intraperitoneally administered to SD rats (females, 3 weeks old) once daily for 6 consecutive days and the collagen content and non-collagenous protein content of the uterus were compared with those of control animals. […] I | said tests, rats were used in groups of 10 individuals.

[5] = biological target: T1, Protocollagen prolyl hydroxylase; assay: Protocollagen prolyl hydroxylase inhibiting activity (method of R. E. Rhoads, substrate (Pro-Pro-Gly)5.4H2O); format: biochemical, chick embryo; conditions: 3.13 μM compound, 20 μg enzyme
[6] = in acetone, chloroform, n-hexane and petroleum ether
[7] = in dimethyl sulfoxide, dimethylformamide, pyridine and 5% aqueous sodium hydrogen carbonate
[8] = in methanol, dioxane and acetic acid
[9] = 1 mg/kg i.p. once daily 6 days + Estradiol-17β (5 μg), P < 0.05 (B: P < 0.02, C: P < 0.01)
[10] = 1 mg/kg i.p. once daily 6 days + Estradiol-17β (5 μg)
[11] = in dimethylsulfoxide, pyridine, ethyl acetate, chloroform, dioxan
[12] = in chloroform, n-hexane and petroleum ether
[13] = 50 mg/kg i.p. once daily 6 days + Estradiol-17β (5 μg)

Structure (SMILES) | Solubility (Solubility; [6]) | Solubility (Solubility; [7]) | Solubility (Solubility; [8]) | Solubility (Solubility; in water) | Description [1] | LD50 [2] | IC50 [3] | % Inhibition: Collagen [4, 9] | Body weight of rats [4, 10] | Collagen content of uterus [4, 10] | Total protein content of uterus [4, 10] | % Inhibition: Non-collagenous protein [4, 10] | Solubility (Solubility; [11]) | Solubility (Solubility; in n-hexane, petroleum ether) | inhibition at 12.5 µM [3] | inhibition at 3.13 µM [5] | other results
COc1cc2c(c(O)c1CSCC(NC(C)=O)C(=O)O)C(=O)C(C)=CC2=O (stereo not shown) [P-23924A] | slightly soluble or insoluble | easily soluble | soluble | slightly soluble or insoluble | acidic and fat-soluble | 100 to 200 mg/kg | 67 µM | 33% | 73 ± 3 g | 2.53 ± 0.35 mg | 15.67 ± 1.63 mg | 10% | – | – | – | – | –
COC1=C(CO)C(=O)c2c(cc(OC)c(CSCC(NC(C)=O)C(=O)O)c2O)C1=O (stereo not shown) [P-23924F] | slightly soluble or insoluble | easily soluble | soluble | slightly soluble or insoluble | acidic and fat-soluble | 50 to 100 mg/kg | 21 µM | 38% | 71 ± 3 g | 2.47 ± 0.57 mg | 15.20 ± 1.53 mg | 15% | – | – | – | – | –
COc1cc2c(c(O)c1C)C(=O)C(C)=CC2=O [P-23924 AR] | – | – | – | slightly soluble or insoluble | – | – | – | – | – | – | – | – | readily or easily soluble | slightly soluble or insoluble | 26% | 37% | –
COC1=CC(=O)c2c(cc(OC)c(C)c2O)C1=O [P-23924 CR] | – | – | – | slightly soluble or insoluble | – | – | – | – | – | – | – | – | readily or easily soluble | slightly soluble or insoluble | 33% | 40% | –
COC1=C(C)C(=O)c2c(cc(OC)c(C)c2O)C1=O [P-23924 BR] | – | – | – | slightly soluble or insoluble | – | – | – | – | – | – | – | – | readily or easily soluble | slightly soluble or insoluble | 22% | 26% | –
COC1=C(C)C(=O)c2c(cc(OC)c(CSCC(NC(C)=O)C(=O)O)c2O)C1=O (stereo not shown) [P-23924B] | slightly soluble or insoluble | easily soluble | soluble | slightly soluble or insoluble | acidic and fat-soluble | 50 to 100 mg/kg | 95 µM | 46% | 70 ± 5 g | 2.37 ± 0.43 mg | – | 19% | – | – | – | – | –
COC1=CC(=O)c2c(cc(OC)c(CSCC(NC(C)=O)C(=O)O)c2O)C1=O (stereo not shown) [P-23924C] | – | easily soluble | – | slightly soluble or insoluble | acidic and fat-soluble | 100 to 200 mg/kg | 57 µM | 61% | 73 ± 6 g | 2.19 ± 0.49 mg | 14.01 ± 1.51 mg | 30% | – | – | – | – | Solubility (Solubility; [12]): slightly soluble or insoluble; Solubility (Solubility; in methanol, dioxane, acetone and acetic acid): soluble
COc1cc2c(c(O)c1CSCC(NC(C)=O)C(=O)O)C(=O)C(CO)=CC2=O (stereo not shown) [P-23924E] | – | – | – | slightly soluble or insoluble | acidic and fat-soluble | ~50 mg/kg | 21 µM | 34% | 72 ± 4 g | 2.52 ± 0.36 mg | 15.73 ± 1.59 mg | 9% | – | – | – | – | Solubility (Solubility; [12]): slightly soluble or insoluble; Solubility (Solubility; in dimethyl sulfoxide, dimethylformamide, pyridine, 5% aqueous sodium hydrogen carbonate and methanol): easily soluble; Solubility (Solubility; in dioxane and acetic acid): soluble
COC1=C(C)C(=O)c2c(cc(O)c(CSCC(NC(C)=O)C(=O)O)c2O)C1=O (stereo not shown) [P-23924D] | slightly soluble or insoluble | easily soluble | soluble | slightly soluble or insoluble | acidic and fat-soluble | > 400 mg/kg | 270 µM | – | – | – | – | – | – | – | – | – | % Inhibition: Collagen ([4]; 50 mg/kg i.p. once daily 6 days + Estradiol-17β (5 μg), P < 0.05): 32%; Body weight of rats [4, 13]: 72 ± 3 g; Collagen content of uterus [4, 13]: 2.55 ± 0.30 mg; Total protein content of uterus [4, 13]: 15.63 ± 1.43 mg; % Inhibition: Non-collagenous protein [4, 13]: 11%
COC1=C(C)C(=O)c2c(cc(O)c(C)c2O)C1=O [P-23924 DR] | – | – | – | slightly soluble or insoluble | – | – | – | – | – | – | – | – | readily or easily soluble | slightly soluble or insoluble | 20% | 33% | –
